According to ChEMBL document CHEMBL1129390, “Synthesis and solution conformation of cyclo[RGDRGD]: a cyclic peptide with selectivity for the alpha V beta 3 receptor” (J Med Chem, 1996):
Square brackets hold non-standard residues; d marks the D form. Peptide text beside a SMILES is read from it. NMeR = CN[C@@H](CCCNC(=N)N)C(=O)O; 3Amb = NCc1cccc(C(=O)O)c1; dAbu = CC[C@@H](N)C(=O)O

biological target: Integrin alpha-V/beta-3 (Homo sapiens, UniProt P05106+P06756); experiment: Inhibition of alphaV-beta3 interaction with vitronectin; format: protein-complex assay
Sequence (P05106 27-788 limits assumed): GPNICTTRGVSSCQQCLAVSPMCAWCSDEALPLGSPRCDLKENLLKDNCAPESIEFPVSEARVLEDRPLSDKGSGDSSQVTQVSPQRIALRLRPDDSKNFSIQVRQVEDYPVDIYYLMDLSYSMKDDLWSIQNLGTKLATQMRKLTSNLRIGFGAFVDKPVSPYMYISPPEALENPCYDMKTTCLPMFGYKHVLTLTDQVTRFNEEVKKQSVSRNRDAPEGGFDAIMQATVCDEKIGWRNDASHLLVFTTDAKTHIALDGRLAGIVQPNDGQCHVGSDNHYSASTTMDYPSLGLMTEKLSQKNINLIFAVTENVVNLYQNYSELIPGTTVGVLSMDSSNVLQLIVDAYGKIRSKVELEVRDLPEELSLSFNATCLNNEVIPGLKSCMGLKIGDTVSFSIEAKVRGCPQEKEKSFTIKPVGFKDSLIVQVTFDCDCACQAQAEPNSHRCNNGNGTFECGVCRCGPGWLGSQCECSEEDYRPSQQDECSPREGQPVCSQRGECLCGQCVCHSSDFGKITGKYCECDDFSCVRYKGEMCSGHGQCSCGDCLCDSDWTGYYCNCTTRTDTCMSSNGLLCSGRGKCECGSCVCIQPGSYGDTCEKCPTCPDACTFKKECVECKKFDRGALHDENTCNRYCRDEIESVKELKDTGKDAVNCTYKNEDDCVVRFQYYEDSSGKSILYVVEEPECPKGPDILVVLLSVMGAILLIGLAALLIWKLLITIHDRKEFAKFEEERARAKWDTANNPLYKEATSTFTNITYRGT
Sequence (P06756 31-889 limits assumed): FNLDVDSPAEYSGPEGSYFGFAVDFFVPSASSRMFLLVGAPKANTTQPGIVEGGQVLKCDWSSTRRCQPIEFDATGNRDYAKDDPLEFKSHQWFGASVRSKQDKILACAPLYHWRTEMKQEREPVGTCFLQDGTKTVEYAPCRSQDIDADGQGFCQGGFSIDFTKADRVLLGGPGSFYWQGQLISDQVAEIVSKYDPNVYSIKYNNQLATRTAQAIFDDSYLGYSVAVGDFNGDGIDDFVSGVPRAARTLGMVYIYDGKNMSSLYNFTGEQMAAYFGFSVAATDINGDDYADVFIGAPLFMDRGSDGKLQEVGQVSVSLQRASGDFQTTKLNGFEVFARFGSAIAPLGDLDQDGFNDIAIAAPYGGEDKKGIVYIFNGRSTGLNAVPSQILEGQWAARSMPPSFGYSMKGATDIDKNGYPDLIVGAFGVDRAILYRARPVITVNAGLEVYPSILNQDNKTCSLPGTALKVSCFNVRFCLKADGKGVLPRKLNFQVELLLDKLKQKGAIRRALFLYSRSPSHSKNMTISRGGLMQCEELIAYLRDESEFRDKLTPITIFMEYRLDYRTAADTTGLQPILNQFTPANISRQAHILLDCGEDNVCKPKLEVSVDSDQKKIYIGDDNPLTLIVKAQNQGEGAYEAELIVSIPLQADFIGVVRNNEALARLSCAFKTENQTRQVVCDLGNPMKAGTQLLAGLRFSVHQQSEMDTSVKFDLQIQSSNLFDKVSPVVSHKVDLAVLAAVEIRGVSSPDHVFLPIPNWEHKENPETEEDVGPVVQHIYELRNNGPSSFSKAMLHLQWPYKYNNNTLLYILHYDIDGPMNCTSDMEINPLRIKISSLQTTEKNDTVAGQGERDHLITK
Sequence (P06756 891-1048 limits assumed): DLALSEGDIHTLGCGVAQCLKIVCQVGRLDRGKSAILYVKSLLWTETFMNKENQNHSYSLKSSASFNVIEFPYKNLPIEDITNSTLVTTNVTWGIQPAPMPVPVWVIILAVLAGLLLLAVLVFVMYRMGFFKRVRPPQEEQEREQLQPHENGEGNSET

Structure (SMILES) | IC50 [µM]
N=C(N)NCCC[C@@H]1NC(=O)[C@H](CC(=O)O)NC(=O)CNC(=O)[C@H](CCCNC(=N)N)NC(=O)[C@H](CC(=O)O)NC(=O)CNC1=O | 0.14
N=C(N)NCCC[C@@H]1NC(=O)[C@H](CC(=O)O)NC(=O)CNC(=O)[C@H](CCCNC(=N)N)NC(=O)[C@@H](CC(=O)O)NC(=O)CNC1=O | 0.32
NC(N)=NCCC[C@H](NC(=O)[C@H](CC(=O)O)NC(=O)CNC(=O)[C@@H](N)CCCN=C(N)N)C(=O)NCC(=O)N[C@@H](CC(=O)O)C(=O)O (H-RGDRGD-OH) | 0.07
CC[C@H]1NC(=O)c2cccc(c2)CNC(=O)[C@H](CC(=O)O)NC(=O)CNC(=O)[C@H](CCCN=C(N)N)N(C)C1=O (cyclo([NMeR]GD[3Amb][dAbu])) | > 10
